Consider one compound from patent US20120316158A1, “OPHTHALMIC SOLUTION FOR TREATING OCULAR INFECTION COMPRISING LEVOFLOXACIN OR SALT THEREOF OR SOLVATE OF THE SAME, METHOD FOR TREATING OCULAR INFECTION, LEVOFLOXACIN OR SALT THEREOF OR SOLVATE OF THE SAME, AND USE THEREOF” (priority 2010, published 2012).

Experiment [1] concerns methicillin-sensitive Staphylococcus aureus. Particulars: isolates from a patient suffering from bacterial keratitis; cited from earlier work.
A further experiment deals with MSSA. The experiment in a line: MIC of clinical isolate from a patient suffering from an external ocular infection. Format: cell-based. Particulars: Staphylococcus aureus; MSSA clinical isolate from a patient with an external ocular infection. The method, then: MSSA (MIC=0.5 μg/mL with respect to levofloxacin) was isolated from a patient suffering from an external ocular infection.

Consider `C[C@H]1COc2c(N3CCN(C)CC3)c(F)cc3c(=O)c(C(=O)O)cn1c23` [levofloxacin, Levofloxacin], for which the “clinically isolated MSSA resistant to levofloxacin” value in experiment [1] is listed as “about 10%”. In the experiment on MSSA, the MIC worked out at 0.5 µg/mL.
